Laboratory results from ChEMBL document CHEMBL1201862, “PubChem BioAssay data set” (2004).
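Test compounds were applied to cells in 96-well plates for 48 hours at 5 doses. At the GI50, growth is halved.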 Active and inactive are the calls of the source. No stated cut-off is given here; in the data, active = GI50 up to about 1.1 µM and inactive = higher.

Key:
Assay in all cases: growth of human tumour cells (NCI), 48 h
[1] = tested on: OVCAR-8
[2] = tested on: MDA-MB-231
[3] = tested on: SNB-75
[4] = tested on: SF-539
[5] = tested on: HCT-116
[6] = tested on: CCRF-CEM
[7] = tested on: SNB-19
[8] = tested on: UACC-62
[9] = tested on: MDA-N
[10] = tested on: OVCAR-4
[11] = tested on: SK-OV-3
[12] = tested on: U-251
[13] = tested on: OVCAR-3
[14] = tested on: A549
[15] = tested on: OVCAR-5
[16] = tested on: SR
[17] = tested on: UO-31
[18] = tested on: T47D
[19] = tested on: SW-620
[20] = tested on: A498
[21] = tested on: RXF 393
[22] = tested on: MCF7
[23] = tested on: Hs-578T
[24] = tested on: EKVX
[25] = tested on: DU-145
[26] = tested on: NCI-H226
[27] = tested on: CAKI-1
[28] = tested on: TK-10
[29] = tested on: BT-549
[30] = tested on: KM12
[31] = tested on: M14
[32] = tested on: HCT-15
[33] = tested on: UACC-257
[34] = tested on: 786-0
[35] = tested on: NCI/ADR-RES
[36] = tested on: PC-3
[37] = tested on: LOX IMVI
[38] = tested on: COLO 205
[39] = tested on: NCI-H522
[40] = tested on: IGROV-1
[41] = tested on: MDA-MB-435
[42] = tested on: SF-295
[43] = tested on: ACHN
[44] = tested on: SK-MEL-5
[45] = tested on: RPMI-8226
[46] = tested on: SF-268
[47] = tested on: NCI-H460
[48] = tested on: HT-29
[49] = tested on: SK-MEL-28
[50] = tested on: SN12C
[51] = tested on: HOP-62
[52] = tested on: MOLT-4
[53] = tested on: SK-MEL-2
[54] = tested on: HCC 2998
[55] = tested on: HL-60
[56] = tested on: HOP-92
[57] = tested on: NCI-H23
[58] = tested on: Malme-3M
[59] = tested on: K562

Measured: GI50

CNC(=O)/C=C/C1=CN2C(=O)c3ccc(C)c(O)c3NC(OC)C2C1 (centres undefined)
< 0.0131 µM: [32]
active: [1] < 0.0141 µM | [2] < 0.01 µM | [3] 0.0151 µM | [4] < 0.0135 µM | [5] < 0.0148 µM | [6] < 0.0247 µM | [7] < 0.0152 µM | [8] < 0.0124 µM | [9] < 0.0127 µM | [10] < 0.0132 µM | [11] < 0.0206 µM | [12] < 0.0161 µM | [13] < 0.0134 µM | [14] < 0.0149 µM | [15] 0.0244 µM | [16] < 0.0156 µM | [17] < 0.0143 µM | [18] < 0.0181 µM | [19] < 0.0164 µM | [20] 0.0533 µM | [21] < 0.01 µM | [22] < 0.0163 µM | [23] < 0.0145 µM | [24] 0.0163 µM | [25] < 0.01 µM | [26] 0.0141 µM | [27] < 0.0166 µM | [28] 0.0142 µM | [29] < 0.01 µM | [30] < 0.0139 µM | [31] < 0.0124 µM | [33] < 0.013 µM | [34] < 0.01 µM | [35] < 0.01 µM | [36] < 0.016 µM | [37] < 0.0142 µM | [38] 0.0136 µM | [39] < 0.0128 µM | [40] 0.016 µM | [41] < 0.0133 µM | [42] 0.0168 µM | [43] 0.0142 µM | [44] 0.0116 µM | [45] 0.0234 µM | [46] < 0.0154 µM | [47] 0.0135 µM | [48] < 0.0143 µM | [49] 0.0145 µM | [50] < 0.01 µM | [51] < 0.0143 µM | [52] 0.0183 µM | [53] 0.0125 µM | [54] < 0.0126 µM | [55] 0.0298 µM | [56] 0.0166 µM | [57] < 0.0134 µM | [58] 0.0132 µM

Brc1ccc2c([C@H]3CN[C@@H](c4c[nH]c5cc(Br)ccc45)CN3)c[nH]c2c1
inactive: [1] 1.84 µM | [2] 1.8 µM | [3] 5.27 µM | [4] 2.89 µM | [5] 1.66 µM | [6] 2.84 µM | [7] 9.14 µM | [8] 9.82 µM | [9] 1.66 µM | [10] 1.9 µM | [11] 8.99 µM | [12] 2 µM | [13] 1.94 µM | [14] 2.8 µM | [15] 4.95 µM | [16] 2.27 µM | [17] 4.16 µM | [18] 5.47 µM | [19] 1.71 µM | [20] 1.87 µM | [21] 2.4 µM | [22] 1.9 µM | [23] 7.62 µM | [24] 10.5 µM | [25] 2.96 µM | [26] 7.26 µM | [27] 2.94 µM | [28] 7.33 µM | [29] 12.3 µM | [30] 1.7 µM | [31] 2.24 µM | [33] 14.9 µM | [34] 1.65 µM | [35] 4.9 µM | [36] 3.9 µM | [37] 1.83 µM | [38] 1.57 µM | [39] 1.57 µM | [40] 3.19 µM | [41] 1.72 µM | [42] 7.1 µM | [43] 2.94 µM | [44] 4.91 µM | [45] 2.48 µM | [46] 6.79 µM | [47] 1.9 µM | [48] 1.92 µM | [49] 14.2 µM | [50] 5.19 µM | [51] 11.6 µM | [52] 2.29 µM | [53] 5.07 µM | [54] 1.62 µM | [55] 1.95 µM | [59] 1.74 µM | [56] 3.24 µM | [57] 2.54 µM | [58] 2.56 µM
3.83 µM: [32]

Oc1c(O)c(Cc2ccccc2)c(Cc2ccccc2)c(Cc2ccccc2)c1Cc1ccccc1
inactive: [1] > 10 µM | [2] > 10 µM | [3] > 10 µM | [4] > 10 µM | [5] > 10 µM | [6] > 10 µM | [7] > 10 µM | [8] > 10 µM | [9] > 10 µM | [10] > 10 µM | [11] > 10 µM | [12] > 10 µM | [13] > 10 µM | [14] > 10 µM | [15] > 10 µM | [16] > 10 µM | [17] > 10 µM | [18] > 10 µM | [19] > 10 µM | [20] > 10 µM | [21] > 10 µM | [22] > 10 µM | [23] > 10 µM | [24] > 10 µM | [25] > 10 µM | [26] > 10 µM | [27] > 10 µM | [28] > 10 µM | [29] > 10 µM | [30] > 10 µM | [31] > 10 µM | [33] > 10 µM | [34] > 10 µM | [35] > 10 µM | [36] > 10 µM | [37] > 10 µM | [38] > 10 µM | [39] > 10 µM | [40] > 10 µM | [41] > 10 µM | [42] > 10 µM | [43] > 10 µM | [44] > 10 µM | [45] > 10 µM | [46] > 10 µM | [47] > 10 µM | [48] > 10 µM | [49] > 10 µM | [50] > 10 µM | [51] > 10 µM | [52] > 10 µM | [53] > 10 µM | [54] > 10 µM | [55] > 10 µM | [59] > 10 µM | [56] > 10 µM | [57] > 10 µM | [58] > 10 µM
> 10 µM: [32]

S=C1SSC2N=CC=CC12 (centres undefined)
57.8 µM: [32]
inactive: [1] > 100 µM | [2] > 100 µM | [3] > 100 µM | [4] > 100 µM | [5] 92.9 µM | [6] 5.66 µM | [7] > 100 µM | [8] 76.4 µM | [9] > 100 µM | [10] 16.2 µM | [11] > 100 µM | [12] > 100 µM | [13] > 100 µM | [14] 47.1 µM | [15] > 100 µM | [16] 45.4 µM | [17] > 100 µM | [18] 93.5 µM | [19] > 100 µM | [20] 29.9 µM | [21] 46.5 µM | [22] 36.7 µM | [23] > 100 µM | [24] > 100 µM | [25] > 100 µM | [26] > 100 µM | [27] 19.7 µM | [28] > 100 µM | [29] > 100 µM | [30] 17.3 µM | [31] 85.5 µM | [33] > 100 µM | [34] > 100 µM | [35] > 100 µM | [36] 63.4 µM | [37] 31.3 µM | [38] > 100 µM | [39] 68.9 µM | [40] 78.7 µM | [41] 17.3 µM | [42] 84.9 µM | [43] > 100 µM | [44] 43.3 µM | [45] 63.8 µM | [46] > 100 µM | [47] 31.4 µM | [48] > 100 µM | [49] > 100 µM | [50] > 100 µM | [52] 38.3 µM | [53] > 100 µM | [54] 24.7 µM | [55] 40.5 µM | [59] 49.1 µM | [56] 74.1 µM | [57] > 100 µM | [58] 56 µM
